Earlier results on three compounds are cited in patent publication US20230168217A1, “Test strip for the detection of neutral analytes in a sample” (priority 2020, published 2023).

Structures are written as SMILES. Where “and” joins values, the source holds several entries; their conditions need not be identical. Identical values can stand only once. Like-named read-outs stand apart in the source and are kept apart here. Some results are limits rather than exact numbers.

For data set [1] the following is noted: previously reported.
Experiment in data set [2]: not given
This is another data set of the same source.

For the compound `CN1CC[C@]23c4c5ccc(O)c4O[C@H]2[C@@H](O)C=C[C@H]3[C@H]1C5` [morphine], the “concentrations in fatal cases of poisoning” value was “approximately 1.75 µM”.

As to `COc1cccc(C2(O)CCCCC2CN(C)C)c1` (centres unmarked) [tramadol], the “concentrations in fatal cases of poisoning” value was around 3.8 µM.

On to `CC(=O)Nc1ccc(O)cc1` [paracetamol], for which, in data set [1], the Protein bound fractions is on record as 20-25%. In addition, the “Serum levels predicting hepatotoxicity” value was ≥ 200 µg/ml and ≥ 1.323 mM in data set [2] (4 hours postingestion); ≥ 6.25 µg/mL and ≥ 43.1 µM in data set [2] (24 h post-ingestion).
